# Measured values: the supplement of paper PMC10307832
# What was measured:
# Assay in all cases: relative viability (nuclei count vs DMSO), 5 days (fraction); higher = more cells survive
# Tosedostat + Bortezomib = compound: CC(C)C[C@@H](C(=O)N[C@H](C(=O)OC1CCCC1)c1ccccc1)[C@H](O)C(=O)NO [Tosedostat] + CC(C)C[C@H](NC(=O)[C@H](Cc1ccccc1)NC(=O)c1cnccn1)B(O)O [Bortezomib] (partner 0.002 µM)
# Summary of the method: (§1)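 Lung cancer cell lines, seeded in 1536-well plates, were treated the following day by pin tool with a single drug or with five library-drug doses (not always all listed) in √10 steps on top of a fixed anchor-drug dose. Cells were fixed and nuclei stained in one step after 5 days, and nuclei were counted. Relative viability is the nuclei count for treated wells divided by that for vehicle wells, reported as medians of duplicate plates.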
# [1] = compound: CC1=NN=C(O1)C2=NN=C(C=C2)N3CCC(CC3)OC4=C(C=CC(=C4)F)Cl + N=C(N)NC(=N)NCCc1ccccc1 [Phenformin] (partner 250 µM)
# Summary of the method: as §1
# Tosedostat + Vorinostat = compound: CC(C)C[C@@H](C(=O)N[C@H](C(=O)OC1CCCC1)c1ccccc1)[C@H](O)C(=O)NO [Tosedostat] + O=C(CCCCCCC(=O)Nc1ccccc1)NO [Vorinostat] (partner 1 µM)
# Summary of the method: as §1
# [2] = compound: CC1=NN=C(O1)C2=NN=C(C=C2)N3CCC(CC3)OC4=C(C=CC(=C4)F)Cl + NC(=O)Nc1cc(-c2cccc(F)c2)sc1C(=O)N[C@H]1CCCNC1 [AZD7762] (partner 0.2 µM)
# Summary of the method: as §1
Cell Line,relative viability (Tosedostat + Bortezomib; first compound 0.02 µM),relative viability (Tosedostat + Bortezomib; first compound 0.06325 µM),relative viability (Tosedostat + Bortezomib; first compound 0.2 µM),relative viability (Tosedostat + Bortezomib; first compound 0.6325 µM),relative viability (Tosedostat + Bortezomib; first compound 2 µM),relative viability ([1]; first compound 0.253 µM),relative viability ([1]; first compound 0.8 µM),relative viability ([1]; first compound 2.53 µM),relative viability ([1]; first compound 8 µM),relative viability (Tosedostat + Vorinostat; first compound 0.02 µM),relative viability (Tosedostat + Vorinostat; first compound 0.06325 µM),relative viability (Tosedostat + Vorinostat; first compound 0.2 µM),relative viability (Tosedostat + Vorinostat; first compound 0.6325 µM),relative viability (Tosedostat + Vorinostat; first compound 2 µM),relative viability ([2]; first compound 0.253 µM),relative viability ([2]; first compound 0.8 µM),relative viability ([2]; first compound 2.53 µM),relative viability ([2]; first compound 8 µM)
SW 1573,1.1,0.96,0.938,0.709,0.949,0.371,0.329,0.351,0.363,0.984,0.718,0.81,0.671,0.614,,,,
NCI-H1648,,,,,,,,,,0.316,0.661,0.553,0.365,0.354,0.434,0.532,0.6,0.503
A549,,,,,,0.158,0.0878,0.14,0.147,,,,,,,,,
A-427,1.02,0.916,1.06,1.01,0.879,0.285,,0.278,0.258,0.893,0.893,0.85,0.853,0.801,0.726,0.526,0.824,0.724
NCI-H2009,1.3,1.02,0.971,0.926,0.728,0.456,0.418,0.424,0.378,0.808,0.659,0.736,0.633,0.645,,,,
LCLC-97TM1,0.529,0.696,0.537,0.336,0.193,0.501,0.396,0.427,0.437,0.682,0.602,0.533,0.532,0.47,0.264,,0.235,0.205
NCI-H1792,1.01,0.991,0.934,0.952,1,0.294,0.416,0.264,0.384,,,,,,0.535,0.574,0.689,0.472
LCLC-103H,1.1,0.947,1.05,1.25,1.06,0.36,0.344,0.335,0.225,0.787,0.773,0.761,0.776,0.784,0.62,0.657,0.633,0.631
COR-L 105,0.733,0.605,0.807,0.781,0.542,0.513,0.475,0.568,0.642,0.92,0.825,1.1,0.785,0.759,,,,
Calu-6,1.13,0.932,0.943,0.851,0.666,,,,,,,,,,,,,
NCI-H1650,0.207,0.182,0.228,0.197,0.192,,0.403,0.445,0.453,0.51,0.641,0.735,0.841,0.704,,,,
NCI-H358,,,,,,0.369,0.304,0.359,0.305,0.669,0.562,0.478,0.313,0.264,0.559,0.521,0.614,0.544
NCI-H1944,,,,,,0.183,0.187,0.196,0.183,0.632,0.505,0.653,0.523,0.556,0.368,0.348,0.561,0.441
NCI-H2342,,,,,,0.474,0.503,0.492,0.362,0.851,0.79,0.75,0.702,0.843,0.417,0.415,0.479,0.299
EBC-1,0.538,0.516,0.505,0.405,0.334,,,,,,,,,,,,,
NCI-H2023,0.961,0.965,0.888,0.649,0.817,0.401,0.362,0.387,0.324,0.641,0.547,0.62,0.358,0.501,,,,
NCI-H522,,,,,,0.679,0.632,0.855,0.526,1.12,0.897,0.954,0.918,0.916,0.9,0.879,0.857,0.715
IA-LM,0.854,0.731,0.814,0.848,0.735,,,,,1.09,0.844,0.791,0.899,0.878,,,,
SK-MES-1,,,,,,0.58,0.532,0.475,0.414,1.13,1.03,0.963,1.1,1,,,,
NCI-H2170,,,,,,0.336,0.291,0.355,0.323,0.923,0.786,0.963,0.724,0.777,0.343,0.346,0.472,0.367
SK-LU-1,1.33,1.14,1.15,0.921,0.718,0.584,,0.534,0.475,0.897,0.721,0.717,0.677,0.717,,,,
NCI-H520,0.348,0.519,0.508,0.449,0.76,0.509,0.414,0.741,0.578,0.737,0.77,0.59,0.839,0.761,,,,
NCI-H661,0.846,0.69,0.894,0.63,0.768,0.282,0.308,0.244,0.277,0.837,0.826,0.796,0.775,0.814,,,,
NCI-H1793,,,,,,0.402,0.385,0.37,0.315,0.683,0.72,0.714,0.665,0.684,0.411,0.482,0.756,0.407
NCI-H1299,1.05,1,1.01,0.965,0.893,,,,,,,,,,,,,
NCI-H2228,1.33,0.948,0.827,0.896,0.744,0.313,0.257,0.294,0.401,0.615,0.348,0.548,0.25,0.236,,,,
